# Laboratory results taken from patent US11730707B2, “Compounds for treating von Hippel-Lindau disease” (CONSEJO SUPERIOR DE INVESTIGACIONES CIENTÍFICAS, priority 2017, dated 2023).
# “Also recorded” adds a separate entry of the source. Structures can show the parent of a compound that is named as a salt.
# What was measured:
# [1] = test system: β2-adrenergic receptor over β1-adrenergic receptor; details: reported in literature; cited from earlier work
# [2] = test system: hemangioblastoma primary cell cultures from VHL patients; details: both at 100 μM, 72 hours
# Experimental: HeLa 9XHRE cells were stably transfected with a HREluc reporter carrying nine copies in tandem of the hypoxia responsive element (HRE) followed by luciferase gene, and were cultured in DMEM (Dulbecco's Modified Eagle Medium, Gibco, Grand Island, N.Y., USA) supplemented with 10% fetal bovine serum (FBS; Gibco). To induce hypoxic conditions, HeLa cells were cultured with 100 μM desferrioxamine (DFO) (chemical hypoxia). […] Primary cultures of CNS hemangioblastoma were obtained according to the previously described by Albiñana et al., Orphanet J Rare Diseases, 2015, 10: 118.
# The viability of hemangioblastoma and HeLa 9XHRE cells was measured with a CellTiter-Glo Luminescent Cell Viability Assay (Promega, Madison, Wis., USA). This is a homogeneous method to determine the number of viable cells in culture based on quantitation of the ATP present, which signals the presence of metabolically active cells. […] After treatment, plates were equilibrated to room temperature for 30 min before the addition of 100 μl of Cell Titer-Glo reagent (Lysis buffer, Ultra-Glo Recombinant Luciferase, Luciferine and Mg2+). Luminescence was measured using a Glomax Multidetection System (Promega).
# [3] = test system: BAX and CASP9 mRNA in hemangioblastoma cells; assay: Real-time RT-PCR of proapoptotic genes; format: cell-based, human; details: 100 μM, 72 h; HB26 and HB11 hemangioblastoma cell culture
# Experimental: Total cellular RNA was extracted from hemangioblastoma cells using a Nucleo Spin RNA kit (Macherey-Nagel, Düren, Germany). One microgram of total RNA was reverse-transcribed in a final volume of 20 μl with the First Strand cDNA Synthesis Kit (Roche, Mannheim, Germany) using random primers. SYBR Green PCR system (BioRad, Hercules, Calif., USA) was used to carry out real-time PCR with an iQ5 system. Primers used for qPCR were: […]
# [4] = test system: VHL-derived hemangioblastoma cells (hemangiospheres); assay: Hemangiospheres formation and culture; format: cell-based, human; details: 100 μM, 7 days
# Experimental: VHL-derived hemangioblastoma cells were grown in suspension in phenol red free DMEM:F-12 medium with GlutaMAX, supplemented with B27, 20 ng/ml EGF, 20 ng/ml bFGF and 1% penicillin/streptomycin at 37° C. in 5% CO2. Single cell suspensions were plated at a density of 50.000 cells/ml in 75 cm^2 ultralow attachment flasks (Corning).
# HUVEC migration = assay: Wound healing assay; format: cell-based, human; details: 100 μM, 6 hours
# Experimental: FIG. 5. […] A. Functional in vitro tests for angiogenesis include “wound-healing” or plate-scratch, to follow the migration capacity of endothelial cells after short times. When a confluent monolayer is disrupted with the tip of a micropipette to create a discontinuity, endothelial cells normally migrate to cover the discontinuity “wound the healing” in a short time, depending on the size of the “wound” but normally, less than 8 hours. This test measures the migration by taking pictures at different times from the moment the wound is created. Only the final picture after 6 hours is shown. The migrated distance is quantified, and in the following graph the evolution is shown.
# (§1) In vitro-scratched wounds were created by scraping confluent HUVEC-1 monolayers in P-24 plate wells with sterile disposable pipet tips.
# HUVECs tubulogenesis = assay: Tube formation assay on Matrigel; format: cell-based, human; details: 100 μM, 3 hours
# Text: FIG. 6. […] Tubulogenesis is another in vitro test for angiogenesis. Endothelial cells cultured on matrigel have the property of building cell tube-like structures, which mimic the “vessels” structure. […] B. The number of closed cells (density network) is quantified and averaged from 5 different fields in each case. Bar histograms represent the mean±SD.
# as §1
# [5] = test system: HIF transcriptional activity in HeLa 9XHRE cells; assay: HRE-luciferase reporter assay under DFO chemical hypoxia; format: cell-based, human; details: for luciferase activity induced by hypoxia (HIF transcriptional activity): 100 μM, 100 μM DFO
# Text: Angiogenesis is largely dependent of HIF transcription program, triggered in the presence of hypoxic condition, or as in the case of Von Hippel Lindau haemangioblastoma cells, due to the lack of VHL protein in charge of targeting HIF protein for its proteasome processing under normoxic conditions in wild type cells. A special peculiarity of hemangioblastoma cells, and clear cell kidney carcinoma cells, is that they constitutively express HIF protein, which is active, and is translocated to nucleus where it may bind and activates its gene targets such as: VEGF, PDGF, EPO, endoglin, several metalloproteases, carbonic anhydrase, Glut-1 and so on.
# [6] = test system: primary cultures hemangioblastomas from patients (Vhl−/−); assay: Cell viability measure (CellTiter-Glo); format: cell-based, human; details: for viability (ATP content) of the VHL−/− cells: 72 hours, hemangioblastoma primary cultures 18, 14 and 786-O vs HUVEC, HMEC (FIG. 9)
# Experimental: (§2) Cell viability (cell proliferation, ATP content) was determined using the CellTiter-Glo Luminescent Cell Viability Assay kit (Promega) according to the supplier's instructions. […] Cell lysis was induced in an orbital shaker for 2 min, and then plates were incubated at room temperature for 10 min to stabilize the luminescent signal. Luminescence was measured using a GlomaxMultidetection System (Promega) Readings were normalized to control (100%).
# [7] = test system: human ccRCC Vhl−/− 786-O cell line; assay: Cell viability measure (CellTiter-Glo); format: cell-based; details: 72 hours, 0 to 250 μM
# Experimental: as §2, with “Endothelial cell lines (HUVECs and HMECs), human ccRCC Vhl−/− 786-O cell line, and primary cultures hemangioblastomas from patients (Hb14 and 18) were seeded in triplicate onto a 96-well plate (2×10^3 per well). […] Cell viability” for “Cell viability”
# HMEC = assay: Cell viability measure (CellTiter-Glo); format: cell-based, human
# Experimental: as §2, with “Endothelial cell lines (HUVECs and HMECs), human ccRCC Vhl−/− 786-O cell line, and primary cultures hemangioblastomas from patients (Hb14 and 18) were seeded in triplicate onto a 96-well plate (2×10^3 per well). […] Cell viability” for “Cell viability”
# HUVEC = assay: Cell viability measure (CellTiter-Glo); format: cell-based, human
# Experimental: as §2, with “Endothelial cell lines (HUVECs and HMECs), human ccRCC Vhl−/− 786-O cell line, and primary cultures hemangioblastomas from patients (Hb14 and 18) were seeded in triplicate onto a 96-well plate (2×10^3 per well). […] Cell viability” for “Cell viability”
# [8] = test system: 786-O Vhl−/− ccRCC xenograft; format: in vivo; details: 10 mg/Kg daily intraperitoneally; 50-60 days after the cell inoculation
# Experimental: FIG. 10. Xenografts of 786-O Vhl−/− human ccRCC cells in mice. Male 7-8 weeks old NOD scid gamma (NSG) mice were injected in the dorsal flank with a single cell suspension of 10^6 786-O cells. When tumor size reached 100 mm3 volume, mice were randomly divided in 3 groups, of 9/10 mice each. […] Tumor size was measured by a caliper every 2-3 days and volumes were calculated following the formula: shortest^2×largest×0.52. Mice were sacrificed when tumor volume average of the control group reached an end point established based on ethical procedures. Arrow marks the beginning of the treatment.
# Male 7-8 weeks old NOD scid gamma (NSG) mice were injected in the dorsal flank with a single cell suspension of […] 786-O cells. When tumor size reached 100 mm^3 volume, mice were randomly divided in 3 groups, of 9/10 mice each. […] Tumor size was measured by a caliper every 2-3 days and volumes were calculated following the formula: shortest 2×largest×0.52. Mice were sacrificed when tumor volume average of the control group reached an end point established according to ethical procedures
# retina hemangioblastomas = details: cited from earlier work
smiles,measurement,setting,value
"COc1ccc(OC)c(C(O)C(C)NC(C)(C)C)c1 (racemic) [butoxamine, DL-erythro-α-(2,5-dimethoxyphenyl)-β-t-butyl aminopropanol hydrochloride]",β2/β1 selectivity ratio,[1],at least 17
"Cc1ccc(OCC(O)C(C)NC(C)C)c2c1CCC2 [ICI 118,551, erythro-D,L-1(methylinden-4-yloxy)-3-isopropylaminobutan-2-ol]",effect on viability compared with propranolol,[2],superior to propranolol
same,Bax mRNA expression (RT-qPCR),[3],significantly upregulated; also recorded: increased
same,Caspase 9 mRNA expression (RT-qPCR),[3],significantly upregulated; also recorded: increased
same,hemangiosphere formation,[4],hemangiospheres are disrupted; also recorded: the spheres appear disaggregated
same,cell migration (closure of the discontinuity),HUVEC migration,delay the closure of the discontinuity; also recorded: delay cell migration
same,tubulogenesis (number of closed structures),HUVECs tubulogenesis,dramatically decreased; also recorded: significantly inhibit the tubulogenesis
same,luciferase activity induced by hypoxia (HIF transcriptional activity),[5],reduced practically to “0”
same,luciferase activity induced by hypoxia (HIF transcriptional activity),[5]; listed as ICI,prevented hypoxia stimulation
same,luciferase activity induced by hypoxia (HIF transcriptional activity),"[5]; listed as ICI118,551",extremely reduced
same,hypoxia stimulation induced by DFO (relative luciferase activity),"[5]; 50 or 100 μMolar, 24 h, DFO 100 μMolar simultaneously",inhibits the hypoxia stimulation induced by DFO
same,effect on HIF luciferase activity compared with propranolol,[5]; equal dose,clearly superior to propranolol
same,viability (ATP content) of the VHL−/− cells,[6],"decrease, in a dose-dependent manner and with higher specificity"
same,viability at 100 µM,"[6]; Homo sapiens, Haemangioblastoma (HB) cells, 100 μM (FIG. 11)",20%
same,LD50,[7],100 µM
same,decrease in viability,"HMEC; HMEC-1, 100 μM (FIG. 11)",55%
same,LD50,"HMEC; HMEC, 72 hours, 0 to 250 μM",around 150 μM
same,decrease in viability,HUVEC; 100 μM (FIG. 11),80%
same,LD50,"HUVEC; 72 hours, 0 to 250 μM",around 150 μM
same,decrease of the size tumor versus vehicle treated mice,[8],around 30%
same,β2/β1 selectivity ratio,[1],at least 50
CC(C)NCC(O)COc1ccc(CC(N)=O)cc1 (stereo not shown) [Atenolol],luciferase activity induced by hypoxia (HIF transcriptional activity),[5],less significant
same,luciferase activity induced by hypoxia (HIF transcriptional activity),[5]; listed as atenolol,hardly reduced the hypoxia stimulation
CC(C)NCC(O)COc1cccc2ccccc12 (stereo not shown) [Propranolol],hemangiosphere formation,[4],hemangiospheres are disrupted; also recorded: the spheres appear disaggregated
same,cell migration (closure of the discontinuity),HUVEC migration,delay the closure of the discontinuity; also recorded: delay cell migration
same,tubulogenesis (number of closed structures),HUVECs tubulogenesis,dramatically decreased; also recorded: significantly inhibit the tubulogenesis
same,luciferase activity induced by hypoxia (HIF transcriptional activity),[5],dampened; also recorded: prevented hypoxia stimulation
same,luciferase activity induced by hypoxia (HIF transcriptional activity),[5]; listed as propranolol,extremely reduced
same,viability (ATP content) of the VHL−/− cells,[6],"decrease, in a dose-dependent manner and with higher specificity"
same,decrease of the size tumor versus vehicle treated mice,[8],around 30%
same,tumor growth during the clinical trial,"retina hemangioblastomas; 120 mg a day, 12 months, 7 VHL patients",did not grow in any case
same,visual acuity,"retina hemangioblastomas; 120 mg a day, 12 months",in some cases visual acuity increased
same,side effect,retina hemangioblastomas; 120 mg a day,Low blood pressure
same,exudates from the hemangioblastomas,"retina hemangioblastomas; 2 cases, between 3 and 6 months of treatment",disappeared completely
